Results reported in US20150291514A1, “N-Aminosulfonyl Benzamides” (Pfizer Limited, priority 2012, published 2015).
Where a name gives a salt, the structure may show the parent alone.

molecular target: T1, Nav1.7 (or SCN9A) channel (Homo sapiens, UniProt Q15858); assay: Nav1.7 (hSCN9A) PatchXpress electrophysiology assay; assay type: cell-based; conditions: estimated IC50 from single point electrophysiology data; PatchXpress platform; HEK cells expressing hSCN9A, held at V1/2 of inactivation; read-out: Nav1.7 EIC50
T1 construct: expressed in transfected cells
Protocol: The ability of the compounds of formula (I) to block the Nav1.7 (or SCN9A) channel were measured using the assay described below.
Human Embryonic Kidney (HEK) cells were transfected with an hSCN9A construct using lipofectamine reagent (Invitrogen), using standard techniques. Cells stably expressing the hSCN9A constructs were identified by their resistance to G-418 (400 μg/ml). Clones were screened for expression using the whole-cell voltage-clamp technique.
HEK cells stably transfected with hSCN9A were maintained in DMEM medium supplemented with 10% heat-inactivated fetal bovine serum and 400 μg/ml G-418 in an incubator at 37° C. with a humidified atmosphere of 10% CO2. For HTS, cells were harvested from flasks by trypsinization and replated in an appropriate multi-well plate (typically 96 or 384 wells/plate) such that confluence would be achieved within 24 hours of plating. For electrophysiological studies, cells were removed from the culture flask by brief trypsinization and re-plated at low density onto glass cover slips. Cells were typically used for electrophysiological experiments within 24 to 72 hours after plating.
Cover slips containing HEK cells expressing hSCN9A were placed in a bath on the stage of an inverted microscope and perfused (approximately 1 ml/minutes) with extracellular solution of the following composition: 138 mM NaCl, 2 mM CaCl2, 5.4 mM KCl, 1mM MgCl2, 10 mM glucose, and 10 mM HEPES, pH 7.4, with NaOH. […] The osmolarity of the extracellular and intracellular solutions was 300 mOsm/kg and 295 mOsm/kg, respectively. All recordings were made at room temperature (22-24° C.) using AXOPATCH 200B amplifiers and PCLAMP software (Axon Instruments, Burlingame, Calif.).
hSCN9A currents in HEK cells were measured using the whole-cell configuration of the patch-clamp technique (Hamill et al., 1981). Uncompensated series resistance was typically 2 to 5 mega ohms and >85% series resistance compensation was routinely achieved. As a result, voltage errors were negligible and no correction was applied. Current records were acquired at 20 to 50 KHz and filtered at 5 to 10 KHz.
HEK cells stably transfected with hSCN9A were viewed under Hoffman contrast optics and placed in front of an array of flow pipes emitting either control or compound-containing extracellular solutions. All compounds were dissolved in dimethyl sulfoxide to make 10 mM stock solutions, which were then diluted into extracellular solution to attain the final concentrations desired. […] The voltage-dependence of inactivation was determined by applying a series of depolarizing prepulses (8 sec long in 10 mV increments) from a negative holding potential. The voltage was then immediately stepped to 0 mV to assess the magnitude of the sodium current. Currents elicited at 0 mV were plotted as a function of prepulse potential to allow estimation of the voltage at which 50% of the channels were inactivated (midpoint of inactivation or V1/2). Compounds were tested for their ability to inhibit hSCN9A sodium channels by activating the channel with a 20 msec voltage step to 0 mV following an 8 second conditioning prepulse to the empirically determined V1/2. Compound effect (% inhibition) was determined by difference in current amplitude before and after application of test compounds. For ease of comparison, “estimated IC-50” (EIC50) values were calculated from single point electrophysiology data by the following equation, (tested concentration, uM)×(100-% inhibition/% inhibition). Inhibition values <20% and >80% were excluded from the calculation.
Electrophysiological assays were conducted with PatchXpress 7000 hardware and associated software (Molecular Devices Corp). All assay buffers and solutions were identical to those used in conventional whole-cell voltage clamp experiments described above. hSCN9A cells were grown as above to 50%-80% confluency and harvested by trypsinization. […]

T1 sequence (Q15858 whole entry): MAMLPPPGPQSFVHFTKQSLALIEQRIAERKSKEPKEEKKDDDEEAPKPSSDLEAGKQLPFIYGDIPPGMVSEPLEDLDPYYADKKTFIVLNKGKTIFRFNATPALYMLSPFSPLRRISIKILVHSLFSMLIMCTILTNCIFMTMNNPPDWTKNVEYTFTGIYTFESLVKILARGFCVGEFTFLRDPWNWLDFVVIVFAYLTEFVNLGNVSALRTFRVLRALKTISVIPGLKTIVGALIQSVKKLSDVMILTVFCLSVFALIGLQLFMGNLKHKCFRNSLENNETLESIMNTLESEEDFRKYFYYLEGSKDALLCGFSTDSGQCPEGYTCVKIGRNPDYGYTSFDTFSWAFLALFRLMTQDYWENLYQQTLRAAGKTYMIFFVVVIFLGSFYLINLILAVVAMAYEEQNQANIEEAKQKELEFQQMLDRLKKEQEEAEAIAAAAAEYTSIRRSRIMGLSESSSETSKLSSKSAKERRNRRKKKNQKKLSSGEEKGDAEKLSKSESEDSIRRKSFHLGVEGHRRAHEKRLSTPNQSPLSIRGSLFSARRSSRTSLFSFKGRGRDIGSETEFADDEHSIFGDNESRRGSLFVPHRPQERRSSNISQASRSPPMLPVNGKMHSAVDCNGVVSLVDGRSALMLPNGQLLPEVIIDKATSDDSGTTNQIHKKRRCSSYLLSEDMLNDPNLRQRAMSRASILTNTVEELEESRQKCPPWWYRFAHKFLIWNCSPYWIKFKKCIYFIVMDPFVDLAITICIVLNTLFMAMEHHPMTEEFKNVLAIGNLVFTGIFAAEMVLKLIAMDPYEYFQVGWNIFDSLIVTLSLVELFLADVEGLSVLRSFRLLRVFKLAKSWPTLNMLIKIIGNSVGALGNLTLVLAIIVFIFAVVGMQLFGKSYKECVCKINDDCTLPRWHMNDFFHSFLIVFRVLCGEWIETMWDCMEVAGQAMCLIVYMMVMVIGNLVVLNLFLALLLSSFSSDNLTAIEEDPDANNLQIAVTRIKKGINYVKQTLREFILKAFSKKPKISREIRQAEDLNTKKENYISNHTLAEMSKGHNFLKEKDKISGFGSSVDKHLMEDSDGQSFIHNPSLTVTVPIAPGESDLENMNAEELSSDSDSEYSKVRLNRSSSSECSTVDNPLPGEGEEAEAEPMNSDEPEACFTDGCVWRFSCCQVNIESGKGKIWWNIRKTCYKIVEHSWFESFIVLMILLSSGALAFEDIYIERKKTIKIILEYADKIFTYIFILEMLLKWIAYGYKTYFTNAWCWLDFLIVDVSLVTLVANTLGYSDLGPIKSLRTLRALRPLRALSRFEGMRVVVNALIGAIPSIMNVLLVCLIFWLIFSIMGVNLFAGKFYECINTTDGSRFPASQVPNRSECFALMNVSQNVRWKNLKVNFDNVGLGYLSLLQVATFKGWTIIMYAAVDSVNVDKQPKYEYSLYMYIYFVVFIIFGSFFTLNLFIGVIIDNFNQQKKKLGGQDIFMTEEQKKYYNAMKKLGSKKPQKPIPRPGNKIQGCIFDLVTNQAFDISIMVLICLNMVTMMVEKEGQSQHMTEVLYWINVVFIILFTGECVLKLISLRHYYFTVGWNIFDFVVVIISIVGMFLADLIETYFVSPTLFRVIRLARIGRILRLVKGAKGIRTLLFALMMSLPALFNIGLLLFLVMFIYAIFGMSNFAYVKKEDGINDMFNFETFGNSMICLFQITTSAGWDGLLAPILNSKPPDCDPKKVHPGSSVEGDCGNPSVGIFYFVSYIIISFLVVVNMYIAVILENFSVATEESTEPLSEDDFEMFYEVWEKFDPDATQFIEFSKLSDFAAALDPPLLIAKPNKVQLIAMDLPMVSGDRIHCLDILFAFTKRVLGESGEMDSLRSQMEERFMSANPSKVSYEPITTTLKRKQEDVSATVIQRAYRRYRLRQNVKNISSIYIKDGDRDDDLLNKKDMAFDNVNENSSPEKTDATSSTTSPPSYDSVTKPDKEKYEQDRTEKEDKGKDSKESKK

Row | IC50 [nM] | SMILES
1 | 480 | CN(C)S(=O)(=O)NC(=O)c1cc(F)c(Oc2cnc(N3CCCC3)c(Cl)c2)cc1F [Example 26, 4-[(5-chloro-6-pyrrolidin-1-ylpyridin-3-yl)oxy]-N-[(dimethylamino)sulfonyl]-2,5-difluorobenzamide formate salt]
2 | 590 | CN(C)S(=O)(=O)NC(=O)c1cc(F)c(Oc2cnc(OCC(F)(F)F)c(Cl)c2)cc1F [Example 34, 4-[(5-chloro-6-(2,2,2-trifluoroethoxy)pyridin-3-yl)oxy]-N-[(dimethylamino)sulfonyl]-2,5-difluorobenzamide diethylamine salt]
3 | 160 | CN(C)S(=O)(=O)NC(=O)c1cc(F)c(Oc2cnc(NC34CC(C3)C4)c(Cl)c2)cc1F [Example 28, 4-{[6-(pyridin[1.1.1]pent-1-ylamino)-5-chloropyridin-3-yl]oxy}-N-[(dimethylamino)sulfonyl]-2,5-difluorobenzamide formate salt]
4 | 670 | CN(CC1CC1)c1ncc(Oc2cc(F)c(C(=O)NS(=O)(=O)N(C)C)cc2F)cc1Cl [Example 23, 4-({5-chloro-6-[(cyclopropylmethyl)(methyl)amino]pyridine-3-yl}oxy)-N-[(dimethylamino)sulfonyl]-2,5-difluorobenzamide formate salt]

Continued, molecule first:

Row | SMILES | IC50 [nM]
5 | CNS(=O)(=O)NC(=O)c1ccc(Oc2ccc(Cl)c(C(F)(F)F)c2)cc1 [Example 3, 4-[4-chloro-3-(trifluoromethyl)phenoxy]-N-[(methylamino)sulfonyl]benzamide diethylamine salt] | 4800
6 | CN(C)S(=O)(=O)NC(=O)c1cc(F)c(Oc2cnc(N3CCC(F)C3)c(Cl)c2)cc1F (centres unmarked) [Example 20, 4-{[5-chloro-6-(3-fluoropyrrolidin-1-yl)pyridine-3-yl]oxy}-N-[(dimethylamino)sulfonyl]-2,5-difluorobenzamide formate salt] | 1200
7 | COc1ccccc1Oc1cc(F)c(C(=O)NS(=O)(=O)N(C)C)cc1F [Example 13, N-[(dimethylamino)sulfonyl]-2,5-difluoro-4-(2-methoxyphenoxy)benzamide] | > 1000
8 | CN(C)c1ncc(Oc2cc(F)c(C(=O)NS(=O)(=O)N(C)C)cc2F)cc1Cl [Example 22, 4-{[5-chloro-6-(dimethylamino)pyridine-3-yl]oxy}-N-[(dimethylamino)sulfonyl]-2,5-difluorobenzamide formate salt] | 2500
9 | COc1cc(Cl)ccc1Oc1cc(F)c(C(=O)NS(N)(=O)=O)cc1F [Example 6, N-(aminosulfonyl)-4-(4-chloro-2-methoxvphenoxy)-2,5-difluorobenzamide] | 7300
10 | NS(=O)(=O)NC(=O)c1ccc(Oc2ccc(Cl)cc2-c2ccnnc2)cc1 [Example 15, N-(aminosulfonyl)-4-(4-chloro-2-pyridazin-4-ylphenoxy)benzamide] | > 3000
11 | CC(C)COc1ncc(Oc2cc(F)c(C(=O)NS(=O)(=O)N(C)C)cc2F)cc1Cl [Example 2, 4-[(5-Chloro-6-isobutoxvpvridin-3yl)oxy]-N-[(dimethylamino)sulfonyl]2,5-difluorobenzamide diethylamine salt] | 130
12 | CC(C)COc1ncc(Oc2ccc(C(=O)NS(N)(=O)=O)cc2)cc1Cl [Example 10, N-(aminosulfonyl)-4-[(5-chloro-6-isobutoxypyridin-3-yl)oxy]benzamide diethylamine salt] | 6300
13 | O=C(NS(=O)(=O)N1CCC1)c1cc(Cl)c(Oc2cnc(OCC(F)(F)C(F)F)c(Cl)c2)cc1F [Example 41, N-(azetidin-1-ylsulfonyl)-5-chloro-4-{[5-chloro-6-(2,2,3,3-tetrafluoropropoxy)pyridin-3-yl]oxy}-2-fluorobenzamide] | 100
14 | COc1ccccc1Oc1cc(F)c(C(=O)NS(=O)(=O)N(C)C)cc1Cl [Example 12, 5-chloro-N-[(dimethylamino)sulfonyl]-2-fluoro-4-(2-methoxyphenoxy)benzamide diethylamine salt] | > 1000
